Assays:
[1] = Efficacy of peracetylated beta cyclodextrin as HFA drug suspension stabiliser (phase separation recorded photographically); assay type: physicochemical; settings: peracetylated β cyclodextrin at saturation level, phase separation much slower, suspension much finer, head space adhesion less
Protocol: First, reference samples of pure drugs in HFAs were prepared. Then samples with solubilised peracetylated beta (β) cyclodextrin and micronised drug were prepared. The concentration of drug in these samples was the same as in the reference samples. The cyclodextrin concentration was at saturation level.
The reference samples (pure drug) were prepared by weighing the drug in a PET vial. A valve was then crimped on the vial and propellant added under pressure. The vial was then sonicated for at least 15 minutes and left to equilibrate for one week.
The drug—cyclodextrin samples were prepared by weighing a known amount of drug in a PET vial. The vial was then crimped with a continuous valve. The solution of peracetylated beta (β) cyclodextrin was prepared thus: a large amount of cyclodextrin was placed in large metallic can, it was crimped and filled with one of the propellants. This can was left to equilibrate for at least a week at room temperature. When equilibration was reached, the saturated cyclodextrin solution was filtered through a […] PTFE filter into the PET vials containing the known drug amounts. This way the maximum amount of soluble cyclodextrin was used in the suspensions. The concentration of drugs in the vials was then calculated through accurate recording of the weights of propellant/cyclodextrin added.
The phase separation phenomenon present in both samples (pure drug and with the cyclodextrin) was then recorded photographically.

[2] = Solubility of peracetylated cyclodextrins in HFA propellants, assessed visually; assay type: physicochemical; settings: equilibrated one week, visual; for solubility in HFA 134a: room temperature; for solubility in HFA 227: HFA 227, room temperature
Protocol: The solubility of peracetylated cyclodextrins (alpha, beta and gamma) in HFA propellants was assessed visually in clear PET vials crimped with a continuous pMDI valve. Known amounts of cyclodextrins were weighed into the PET vials. Continuous valves were crimped on the vial, and HFAs were added under pressure to the required amount. The samples were left to equilibrate over one week and were visually inspected. The solubility of the modified cyclodextrin at room temperature was evaluated by discriminating between samples that were clear by opposition to those samples that still had solid particles in suspension.

Row | Molecule | quality/stability of drug suspension with modified cyclodextrin versus pure drug sample ([1]; HFA 134a) | quality/stability of drug suspension with modified cyclodextrin versus pure drug sample ([1]; HFA 227) | solubility in HFA 134a [2] | solubility in HFA 227 [2]
1 | CC(C)(C)NCC(O)c1cc(O)cc(O)c1 (centres unmarked) [Terbutaline Sulphate] | much improved | far more stable |  | 
2 | CCCC1O[C@@H]2C[C@H]3[C@@H]4CCC5=CC(=O)C=C[C@]5(C)[C@H]4[C@@H](O)C[C@]3(C)[C@]2(C(=O)CO)O1 (some centres unmarked) [Budesonide] | improved | much improved |  | 
3 | CC(=O)OCC1OC2OC3C(COC(C)=O)OC(OC4C(COC(C)=O)OC(OC5C(COC(C)=O)OC(OC6C(COC(C)=O)OC(OC7C(COC(C)=O)OC(OC1C(OC(C)=O)C2OC(C)=O)C(OC(C)=O)C7OC(C)=O)C(OC(C)=O)C6OC(C)=O)C(OC(C)=O)C5OC(C)=O)C(OC(C)=O)C4OC(C)=O)C(OC(C)=O)C3OC(C)=O (stereo not drawn) [peracetylated alpha (α) cyclodextrin] |  |  | above 1 % w/w | above 0.5 % w/w
4 | peracetylated beta (β) cyclodextrin |  |  | above 1 % w/w | above 0.1 % w/w

Reference: patent publication US20070104652A1, “Pharmaceutical spray formulation comprising a hydro fluor alkane and an acylated cyclodextrin” (priority 2003, published 2007)
